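Five compound concentrations were applied to cells in 96-well plates for 48 hours; endpoints were derived by simple linear interpolation of the resulting dose-response curve. At the GI50, growth is halved.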 The source made the active and inactive calls. No stated cut-off is given here; in the data, active = GI50 up to about 1.1 µM and inactive = higher.
Key:
Assay in all cases: NCI tumour cell line growth inhibition, 48 h
[1] = tested on: DMS-114
[2] = tested on: DLD-1
[3] = tested on: SNB-78
[4] = tested on: RXF 631
[5] = tested on: XF498
[6] = tested on: HOP-18
[7] = tested on: DMS-273
[8] = tested on: M19-MEL

Measured: GI50

Cc1cc(Br)cc(C)c1NC(=O)C(=O)C(C(=O)c1ccc2ccccc2c1)C1OC(=O)c2ccccc21 (stereo unspecified)
inactive: [1] 7.78 µM | [2] 13 µM | [3] > 10 µM | [4] 16.4 µM | [5] 1.14 µM | [6] 21.7 µM | [7] 11 µM | [8] 12.4 µM

C/C(CC(=O)Nc1ccc([N+](=O)[O-])cc1)=N/N=C(N)N
inactive: [1] > 100 µM | [2] > 100 µM | [3] > 100 µM | [4] > 100 µM | [5] > 100 µM | [7] > 100 µM | [8] > 100 µM

CCOP(=O)(C/C(=N/NC(C)(C)C)C(=O)Nc1nc2ccc(C)cc2s1)OCC
inactive: [1] > 100 µM | [3] > 100 µM | [4] > 100 µM | [5] > 100 µM | [6] > 100 µM | [7] > 100 µM | [8] > 100 µM

Cc1ccc(SSCCCS(=O)O)cc1
inactive: [1] 15.9 µM | [2] 45.8 µM | [4] 20.4 µM | [5] > 100 µM | [6] > 100 µM | [7] 24.5 µM | [8] 31.8 µM

Cc1ccc(C2(C)NC(=S)N(NC(N)=S)C2=S)cc1 (stereo unspecified)
inactive: [1] 73.6 µM | [2] 71.1 µM | [4] > 100 µM | [5] > 100 µM | [7] > 100 µM | [8] > 100 µM

O=C1NC2(O)c3ccccc3C(=O)C2(O)N1c1ccccc1 (stereo unspecified)
inactive: [1] > 100 µM | [2] > 100 µM | [4] > 100 µM | [5] > 100 µM | [6] > 100 µM | [8] > 100 µM

O=C(Nc1cccc2c1C(=O)c1c(NC(=O)c3ccccc3)ccc(Nc3cccc4c3C(=O)c3ccccc3C4=O)c1C2=O)c1ccccc1
inactive: [1] > 100 µM | [2] > 100 µM | [3] > 100 µM | [4] > 100 µM | [6] > 100 µM | [7] > 100 µM | [8] > 100 µM

N#CCCN(c1ccc(-c2nnc(NC(=O)CNNC(=O)CC(=O)Nc3ccccc3)s2)cc1)S(=O)(=O)c1ccccc1
inactive: [1] 55.8 µM | [2] > 100 µM | [4] > 100 µM | [5] > 100 µM | [6] > 100 µM | [7] > 100 µM | [8] > 100 µM

Cc1nc(-n2nc(-c3ccccc3)cc2-c2ccccc2)sc1C(=O)/C=C/c1ccc(/C=C/C(=O)c2sc(-n3nc(-c4ccccc4)cc3-c3ccccc3)nc2C)cc1
inactive: [1] 36.9 µM | [2] 20.8 µM | [3] 33.4 µM | [4] 28.1 µM | [5] 21.8 µM | [7] 21.1 µM | [8] 25.9 µM

CCOC(=O)CCCO
inactive: [2] > 100 µM | [4] > 100 µM | [5] > 100 µM | [6] > 100 µM

— ChEMBL document CHEMBL1201862, “PubChem BioAssay data set” (2004)
